Source: ChEMBL document CHEMBL4706545, “Antiproliferative effect of mitochondria-targeting allobetulin 1,2,3-triazolium salt derivatives and their mechanism of inducing apoptosis of cancer cells” (Eur J Med Chem, 2020)
One block for each molecule: values may come before it. Activity calls are given as the source filed them. The calls are words filed in the database; no cut-off is given here.

Assays:
[1] = test system: ECa-109 cell line; assay: Induction of apoptosis in human ECa-109 cells assessed as viable cells at 1 uM incubated for 48 hrs by annexin-V-FITC and PI staining based fluorescence microscopic analysis (reference value: 95.8 %); type: functional; conditions: read-out: Activity
[2] = test system: ECa-109 cell line; assay: Induction of apoptosis in human ECa-109 cells assessed as early apoptotic cells at 1 uM incubated for 48 hrs by annexin-V-FITC and PI staining based fluorescence microscopic analysis (reference value: 0.971 %); type: functional
[3] = test system: ECa-109 cell line; assay: Induction of apoptosis in human ECa-109 cells assessed as late apoptotic cells at 2 uM incubated for 48 hrs by annexin-V-FITC and PI staining based fluorescence microscopic analysis (reference value: 2.01 %); type: functional
[4] = test system: ECa-109 cell line; assay: Induction of apoptosis in human ECa-109 cells assessed as viable cells at 4 uM incubated for 48 hrs by annexin-V-FITC and PI staining based fluorescence microscopic analysis (reference value: 95.8 %); type: functional; conditions: read-out: Activity
[5] = test system: ECa-109 cell line; assay: Induction of apoptosis in human ECa-109 cells assessed as necrotic cells at 4 uM incubated for 48 hrs by annexin-V-FITC and PI staining based fluorescence microscopic analysis (reference value: 1.19 %); type: functional
[6] = test system: ECa-109 cell line; assay: Induction of apoptosis in human ECa-109 cells assessed as late apoptotic cells incubated for 48 hrs by annexin-V-FITC and PI staining based fluorescence microscopic analysis; type: functional, cell-based; conditions: dose 1-4 µM
[7] = test system: ECa-109 cell line; assay: Induction of mitochondrial membrane potential disruption in human ECa-109 cells incubated for 48 hrs by JC-1 dye based flow cytometry analysis; conditions: Mitochondria, dose 1-4 µM
[8] = test system: ECa-109 cell line; assay: Induction of ROS-mediated apoptosis in human ECa-109 cells assessed as late apoptotic cells at 1 uM incubated for 48 hrs by annexin V-PE and 7-AAD staining based flow cytometry analysis (reference value: 3.89 %); type: functional
[9] = test system: ECa-109 cell line; assay: Induction of ROS-mediated apoptosis in human ECa-109 cells assessed as necrotic cells at 1 uM incubated for 48 hrs by annexin V-PE and 7-AAD staining based flow cytometry analysis (reference value: 0.729 %); type: functional
[10] = test system: ECa-109 cell line; assay: Induction of ROS-mediated apoptosis in human ECa-109 cells assessed as necrotic cells at 2 uM incubated for 48 hrs by annexin V-PE and 7-AAD staining based flow cytometry analysis (reference value: 0.729 %); type: functional
[11] = test system: ECa-109 cell line; assay: Induction of ROS-mediated apoptosis in human ECa-109 cells assessed as viable cells at 4 uM incubated for 48 hrs by annexin V-PE and 7-AAD staining based flow cytometry analysis (reference value: 92.7 %); type: functional; conditions: read-out: Activity
[12] = test system: ECa-109 cell line; assay: Induction of ROS-mediated apoptosis in human ECa-109 cells assessed as late apoptotic cells at 4 uM incubated for 48 hrs by annexin V-PE and 7-AAD staining based flow cytometry analysis (reference value: 3.89 %); type: functional
[13] = test system: ECa-109 cell line; assay: Induction of ROS-mediated apoptosis in human ECa-109 cells assessed as early apoptotic cells at 1 uM incubated for 48 hrs in presence of NAC by annexin V-PE and 7-AAD staining based flow cytometry analysis (reference value: 1.90 %); type: functional
[14] = test system: ECa-109 cell line; assay: Induction of ROS-mediated apoptosis in human ECa-109 cells assessed as viable cells at 2 uM incubated for 48 hrs in presence of NAC by annexin V-PE and 7-AAD staining based flow cytometry analysis (reference value: 94 %); type: functional; conditions: read-out: Activity
[15] = test system: ECa-109 cell line; assay: Induction of ROS-mediated apoptosis in human ECa-109 cells assessed as early apoptotic cells at 2 uM incubated for 48 hrs in presence of NAC by annexin V-PE and 7-AAD staining based flow cytometry analysis (reference value: 1.90 %); type: functional
[16] = test system: ECa-109 cell line; assay: Induction of ROS-mediated apoptosis in human ECa-109 cells assessed as late apoptotic cells at 2 uM incubated for 48 hrs in presence of NAC by annexin V-PE and 7-AAD staining based flow cytometry analysis (reference value: 2.98 %); type: functional
[17] = test system: ECa-109 cell line; assay: Induction of ROS-mediated apoptosis in human ECa-109 cells assessed as necrotic cells at 2 uM incubated for 48 hrs in presence of NAC by annexin V-PE and 7-AAD staining based flow cytometry analysis (reference value: 1.09 %); type: functional
[18] = test system: ECa-109 cell line; assay: Induction of ROS-mediated apoptosis in human ECa-109 cells assessed as late apoptotic cells at 4 uM incubated for 48 hrs in presence of NAC by annexin V-PE and 7-AAD staining based flow cytometry analysis (reference value: 2.98 %); type: functional
[19] = test system: ECa-109 cell line; assay: Induction of cell cycle arrest in human ECa-109 cells assessed as accumulation in S phase at 1 uM incubated for 48 hrs by PI staining based flow cytometry analysis (reference value: 39.33 %); type: functional
[20] = test system: ECa-109 cell line; assay: Induction of apoptosis in human ECa-109 cells assessed as decrease in caspase-3 incubated for 48 hrs by Western blot analysis; type: functional, cell-based; conditions: dose 1-4 µM
[21] = test system: ECa-109 cell line; assay: Induction of apoptosis in human ECa-109 cells assessed as decrease in caspase-9 incubated for 48 hrs by Western blot analysis; type: functional, cell-based; conditions: dose 1-4 µM
[22] = test system: ECa-109 cell line; assay: Induction of apoptosis in human ECa-109 cells assessed as concentrated chromatin at 1 to 4 uM incubated for 48 hrs by Hoechst staining based fluorescence microscopic analysis; type: functional, cell-based; conditions: dose 1-4 µM
[23] = test system: SGC-7901; assay: Induction of mitochondrial membrane potential disruption in human SGC-7901 cells incubated for 48 hrs by JC-1 dye based flow cytometry analysis; conditions: Mitochondria, dose 1-4 µM
[24] = test system: SGC-7901; assay: Induction of apoptosis in human SGC-7901 cells assessed as early apoptotic cells at 2 uM incubated for 48 hrs by annexin-V-FITC and PI staining based fluorescence microscopic analysis (reference value: 1.87 %); type: functional
[25] = test system: SGC-7901; assay: Induction of ROS-mediated apoptosis in human SGC-7901 cells assessed as necrotic cells at 1 uM incubated for 48 hrs by annexin V-PE and 7-AAD staining based flow cytometry analysis (reference value: 0.733 %); type: functional
[26] = test system: SGC-7901; assay: Induction of ROS-mediated apoptosis in human SGC-7901 cells assessed as late apoptotic cells at 4 uM incubated for 48 hrs by annexin V-PE and 7-AAD staining based flow cytometry analysis (reference value: 3.82 %); type: functional
[27] = test system: SGC-7901; assay: Induction of ROS-mediated apoptosis in human SGC-7901 cells assessed as late apoptotic cells at 2 uM incubated for 48 hrs in presence of NAC by annexin V-PE and 7-AAD staining based flow cytometry analysis (reference value: 3.45 %); type: functional
[28] = test system: SGC-7901; assay: Induction of ROS-mediated apoptosis in human SGC-7901 cells assessed as necrotic cells at 2 uM incubated for 48 hrs in presence of NAC by annexin V-PE and 7-AAD staining based flow cytometry analysis (reference value: 0.623 %); type: functional
[29] = test system: SGC-7901; assay: Induction of cell cycle arrest in human SGC-7901 cells assessed as accumulation in S phase at 1 uM incubated for 48 hrs by PI staining based flow cytometry analysis (reference value: 31.13 %); type: functional
[30] = test system: SGC-7901; assay: Induction of cell cycle arrest in human SGC-7901 cells assessed as accumulation in G0/G1 phase at 4 uM incubated for 48 hrs by PI staining based flow cytometry analysis (reference value: 57.39 %); type: functional
[31] = test system: SGC-7901; assay: Induction of apoptosis in human SGC-7901 cells assessed as downregulation of Bcl-2 incubated for 48 hrs by Western blot analysis; type: functional, cell-based; conditions: dose 1-4 µM
[32] = test system: ECa-109 cell line; assay: Induction of apoptosis in human ECa-109 cells assessed as decrease in PARP incubated for 48 hrs by Western blot analysis; type: functional, cell-based; conditions: dose 1-4 µM

Activity [7]: Dose-dependent effect
Compound: COc1ccccc1Cn1n[n+](C)c2c1C(C)(C)[C@@H]1CC[C@]3(C)[C@H](CC[C@@H]4[C@H]5[C@H]6OC[C@@]5(CCC6(C)C)CC[C@]43C)[C@@]1(C)C2.[I-]
viability at 1 µM [1]: 69.1%
Activity [2]: 17.4%
Activity [3]: 23%
viability at 4 µM [4]: 1.26%
Activity [5]: 3.58%
Activity [6]: Dose-dependent effect
Activity [8]: 18.6%
Activity [9]: 2.92%
Activity [10]: 4.87%
viability at 4 µM [11]: 0.811%
Activity [12]: 95%
Activity [13]: 8.01%
viability at 2 µM [14]: 66.2%
Activity [15]: 10.1%
Activity [16]: 18.2%
Activity [17]: 5.48%
Activity [18]: 78.9%
Activity [19]: 35.03%
Activity [20]: Dose-dependent effect
Activity [21]: Dose-dependent effect
Activity [22]: Active

Activity [23]: Dose-dependent effect
Compound: C[n+]1nn(Cc2c(F)cccc2Cl)c2c1C[C@]1(C)[C@H]3CC[C@@H]4[C@H]5[C@H]6OC[C@@]5(CCC6(C)C)CC[C@@]4(C)[C@]3(C)CC[C@H]1C2(C)C.[I-]
Activity [24]: 25.4%
Activity [25]: 0.838%
Activity [26]: 99.6%
Activity [27]: 8.6%
Activity [28]: 0.637%
Activity [29]: 14.19%
Activity [30]: 59.38%
Activity [31]: Dose-dependent effect
Activity [32]: Dose-dependent effect
